The values below come from ChEMBL document CHEMBL4028847, “Perspectives of Cannabinoid Type 2 Receptor (CB2R) Ligands in Neurodegenerative Disorders: Structure-Affinity Relationship (SAfiR) and Structure-Activity Relationship (SAR) Studies” (J Med Chem, 2017).

The structures appear in SMILES notation.

Assay [1] addresses T1, Cannabinoid receptor 1 (Homo sapiens, UniProt P21554). In words: Agonist activity at human CB1 receptor expressed in mouse AtT-20 cells co expressing GIRK by FLIPR assay. It counts as cell-based.
Assay [2] has as its target T2, Cannabinoid receptor 2 (Homo sapiens, UniProt P34972). In words: Binding affinity to CB2 receptor (unknown origin).
Assay [3] has as its target T1, Cannabinoid receptor 1. Nature of the assay: Binding affinity to CB1 receptor (unknown origin).
Assay [4] is filed under the species Homo sapiens. Nature of the assay: Selectivity index, ratio of Ki for CB1 receptor (unknown origin) to Ki for CB2 receptor (unknown origin).
The species named for assay [5] is Homo sapiens. Nature of the assay: Selectivity index, ratio of EC50 for human CB1 receptor to Ki for human CB2 receptor.
The target in assay [6] is T2, Cannabinoid receptor 2. In words: Inhibition of CB2 receptor (unknown origin).
The target of assay [7] is T2, Cannabinoid receptor 2. In words: Agonist activity at human CB2 receptor expressed in mouse AtT-20 cells co expressing GIRK by FLIPR assay. It counts as cell-based.
In assay [8] the target is T2, Cannabinoid receptor 2. Nature of the assay: Activity at CB2 receptor (unknown origin).

T1 sequence (P21554 whole entry): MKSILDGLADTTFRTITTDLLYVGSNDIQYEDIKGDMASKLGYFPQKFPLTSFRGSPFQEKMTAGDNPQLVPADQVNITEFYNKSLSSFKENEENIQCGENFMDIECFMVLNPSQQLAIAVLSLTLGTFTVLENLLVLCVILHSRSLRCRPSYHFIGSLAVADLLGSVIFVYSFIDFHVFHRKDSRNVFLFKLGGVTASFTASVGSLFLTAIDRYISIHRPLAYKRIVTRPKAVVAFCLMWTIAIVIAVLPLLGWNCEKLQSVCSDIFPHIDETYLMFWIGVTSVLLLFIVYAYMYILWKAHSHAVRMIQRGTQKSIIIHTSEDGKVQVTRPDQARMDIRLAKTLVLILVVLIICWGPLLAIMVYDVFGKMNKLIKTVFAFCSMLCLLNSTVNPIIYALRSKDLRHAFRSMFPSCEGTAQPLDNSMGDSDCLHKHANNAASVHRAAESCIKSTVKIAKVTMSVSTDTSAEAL
T2 sequence (P34972 whole entry): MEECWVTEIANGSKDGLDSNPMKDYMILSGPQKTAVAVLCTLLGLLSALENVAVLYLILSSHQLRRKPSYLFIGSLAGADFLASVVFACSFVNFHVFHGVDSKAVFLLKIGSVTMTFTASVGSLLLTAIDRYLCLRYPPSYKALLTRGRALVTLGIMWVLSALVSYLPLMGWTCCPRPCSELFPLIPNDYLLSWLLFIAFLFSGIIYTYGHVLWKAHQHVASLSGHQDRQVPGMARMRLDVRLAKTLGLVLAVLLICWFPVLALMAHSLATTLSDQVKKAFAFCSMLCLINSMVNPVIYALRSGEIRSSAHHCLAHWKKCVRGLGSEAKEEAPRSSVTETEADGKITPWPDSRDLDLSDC

For the compound `CC(C)[C@H](NC(=O)c1nn(Cc2ccc(F)cc2)c2ccccc12)C(N)=O`, at Cannabinoid receptor 1 [1], the EC50 (as a rule, the concentration needed to bring the measured effect to its halfway point) fell in the range of 2.1 to 7.8 nM.

Turning to `CCCc1sc(NC(=O)C23CC4CC(CC(C4)C2)C3)c(C(=O)O[11CH3])c1C`, the results for the Ki on Cannabinoid receptor 2 [2] and on Cannabinoid receptor 1 [3] were 4.3 nM and 1100 nM, respectively.

Regarding `CCCc1sc(NC(=O)C23CC4CC(CC(C4)C2)C3)c(C(=O)OC)c1C`, in the assay filed under Homo sapiens [4] (tested as the 11C-labelled form), the Ratio Ki turned out to be 256.

Take `CC(C)[C@H](NC(=O)c1nn(CC2CCCCC2)c2ccccc12)C(N)=O`: on Cannabinoid receptor 1 [1], the concentration giving a half-maximal response (EC50) was 2.1 to 7.8 nM. Also, the Ratio EC50 in the assay filed under Homo sapiens [5] lay within 1.5 to 3.2. For `CC(C)[C@H](NC(=O)c1nn(CCCCCF)c2ccccc12)C(N)=O` the same measures were 2.1 to 7.8 nM and 1.5 to 3.2. With `CCOCCn1cc(C(=O)NC23CC4CC(CC(C4)C2)C3)c(=O)c2cccc(O[11CH3])c21`, at Cannabinoid receptor 1 [3], the Ki – broadly, a dissociation constant, usually derived from enzyme kinetics or from competition with a known ligand – is above 10000 nM.

Take `CCCCCn1nc(C(=O)N[C@H](C(N)=O)C(C)C)c2ccccc21`: the EC50 at Cannabinoid receptor 1 [1] lay in the range of 2.1 to 7.8 nM. Also, the Ratio EC50 in the assay filed under Homo sapiens [5] was 1.5 to 3.2. On to `COc1cccc2c(=O)c(C(=O)NC34CC5CC(CC(C5)C3)C4)cn(CCOCC[18F])c12`, for which the inhibition constant (Ki) was 1.2 nM on Cannabinoid receptor 2 [2] and above 10000 nM on Cannabinoid receptor 1 [3].

With `[2H]C([2H])([18F])Oc1nc(NCCc2ccc(F)cc2)nc(-c2ccc(Cl)c(C(C)(C)O)c2)n1`, the IC50 – broadly, the point on the concentration scale where inhibition reaches its midpoint – at Cannabinoid receptor 2 [6] was found to be 1.4 nM. Regarding `COc1cccc2c(=O)c(C(=O)NC34CC5CC(CC(C5)C3)C4)cn(CCOCCF)c12`, the Ratio Ki in the assay filed under Homo sapiens [4] (tested as the 18F-labelled form) was above 8330. As to `CCCCCn1cc(C(=O)c2ccccc2OC)c2ccccc21`, the half-maximal effective concentration (EC50) worked out at 54 nM on Cannabinoid receptor 1 [1] and 6.9 nM at Cannabinoid receptor 2 [7]. Further, the Selectivity Index in the assay listed under Homo sapiens [5] stood at 7.8. For the compound `CCOc1nc(NC2CCCC2)nc(N2CCN(CC[18F])CC2)n1`, at Cannabinoid receptor 2 [8], the 50% effective concentration (EC50) was found to be 40 nM. Take `CCCCn1cc(C(=O)c2ccccc2OC)c2ccccc21`: the EC50 on Cannabinoid receptor 1 [1] is 178 nM; at Cannabinoid receptor 2 [7] it was 4.5 nM. Besides, the Selectivity Index in the assay listed under Homo sapiens [5] was found to be 39.6.
